Common to all, as to assay: growth of human tumour cells (NCI), 48 h
Experiment [1] deals with SK-MEL-5 melanoma.
Experiment [2] concerns K-562 leukemia.
In experiment [3] the test system is DU-145 prostate.
The test system of experiment [4] is UACC-62 melanoma.
The test system of experiment [5] is SNB-19 CNS.
The subject of experiment [6] is MALME-3M melanoma.
Experiment [7] deals with OVCAR-5 ovarian.
The subject of experiment [8] is T-47D breast.
Experiment [9] deals with OVCAR-3 ovarian.
The test system of experiment [10] is SR leukemia.

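These data come from cells grown in 96-well plates and exposed to compound for 48 hours at five concentrations. GI50: concentration for 50% inhibition of growth. The concentration for full growth arrest is given as TGI.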 Some results are limits rather than exact numbers.

For the compound `COc1cc(C)c2sc3ccccc3c(=O)c2c1NCCN(C)C`, the GI50 in experiment [1] is 1.67 µM; in [2], 2.3 µM; in experiment [3], 7 µM; in experiment [4] it was 1.87 µM; in experiment [5] it was 12.9 µM; in experiment [6], 2.11 µM. The GI50 in experiment [7] is 9.57 µM; in experiment [8], 2.58 µM; in [9], 10.5 µM; in [10] it was 2.79 µM. In addition, the TGI in experiment [1] was 3.08 µM; in experiment [2] it was 4.61 µM; in experiment [3], 20 µM; in experiment [4], 3.8 µM; in experiment [5], 27.2 µM; in experiment [6] it was 5.39 µM. In addition, the TGI in [7] came to 22.3 µM; in experiment [8], 9.4 µM; in experiment [9], 23.9 µM; in experiment [10], 7.91 µM.

Take `CC(=O)OC1=CC2(OC(C)=O)CC(C)(C)C1C1C(=O)C=CC(=O)C12` (stereo not given): the TGI in experiment [1] was above 100 µM; in [2], above 100 µM; in [3] it was above 100 µM; in experiment [4], 56.7 µM; in [5] it was above 100 µM; in experiment [6], 38.9 µM. The TGI in experiment [7], in experiment [8], in experiment [9] and in [10] was above 100 µM throughout.

Take `Nc1nc(N)c2nc3c(nc2n1)CCCCCCCCCC3`: the GI50 is 0.652 µM in [1]; 0.43 µM in experiment [2]; 2.78 µM in experiment [3]; 1.39 µM in experiment [4]; 6.43 µM in experiment [5]; 4.48 µM in experiment [6]. The GI50 in experiment [7] was 1.75 µM; in experiment [8] it was above 100 µM; in experiment [9], 6.15 µM; in experiment [10] it was 5.03 µM. Moreover, the TGI in experiment [1], in experiment [2], in [3], in experiment [4], in experiment [5] and in experiment [6] was above 100 µM in each case. Also, the TGI in experiment [7], in experiment [8], in [9] and in experiment [10] was above 100 µM throughout.

As for `CC1=Nc2c([nH]c(=S)[nH]c2=O)NC(c2c(Cl)cccc2Cl)C1` (stereo not given), the TGI in [1] was found to be 9.99 µM; in experiment [2] it was 2.21 µM; in [3] it was 3.51 µM; in experiment [4] it was 4.45 µM; in [5], 6.37 µM; in experiment [6] it was 12.9 µM. The TGI in experiment [7] is 11.9 µM; in [8], 3.21 µM; in [9], 4.16 µM; in experiment [10] it was 1.68 µM.

Turning to `Cn1cc(C2=C(Nc3ccccc3)C(=O)NC2=O)c2ccccc21`, the GI50 in [1], in experiment [2], in experiment [3], in [4], in experiment [5] and in experiment [6] was above 25 µM in each case. The GI50 is above 25 µM in [7], 16.2 µM in experiment [8], above 25 µM in experiment [9] and above 25 µM in experiment [10]. The TGI in experiment [1], in [2], in [3], in [4], in [5] and in experiment [6] was above 25 µM each time. Also, the TGI in [7], in experiment [8], in experiment [9] and in experiment [10] was above 25 µM each time.

As for `COc1cnc2c(c1)C(=O)c1c-2n(CCCN2CCC(O)CC2)c(=O)c2cc(Cl)ccc12`, the GI50 is 1.92 µM in [1]; 1.43 µM in experiment [2]; 0.279 µM in experiment [3]; 0.191 µM in [4]; 0.243 µM in [5]; 14.1 µM in experiment [6]. Further, the GI50 in experiment [7] was 1.63 µM; in experiment [8], 0.656 µM; in experiment [9] it was 1.4 µM; in [10], 0.0888 µM. The TGI came to 20.4 µM in experiment [1]; 6.34 µM in [2]; 1.71 µM in [3]; 13.7 µM in experiment [4]; 3.46 µM in experiment [5]; 27.9 µM in experiment [6]. The TGI stood at 3.43 µM in experiment [7], 4.69 µM in experiment [8], 3.03 µM in [9] and 13.2 µM in experiment [10].

Turning to `CN(CCC(=O)/C(=C\c1ccccc1)c1ccc(Cl)cc1)Cc1ccccc1`, the GI50 in [1] was 3.44 µM; in experiment [2], 2.16 µM; in experiment [3] it was 2.35 µM; in [4], 1.91 µM; in experiment [5], 3.92 µM; in experiment [6] it was 3.23 µM. Besides, the GI50 was 3.53 µM in [7], 2.5 µM in [8], 2.03 µM in experiment [9] and 0.521 µM in experiment [10]. In addition, the TGI in experiment [1] amounted to 13.1 µM; in experiment [2] it was 13.1 µM; in experiment [3] it was 6.78 µM; in [4] it was 4.37 µM; in experiment [5] it was 19.1 µM; in experiment [6], 11.8 µM. In addition, the TGI in [7] worked out at 10.4 µM; in experiment [8], 9.01 µM; in experiment [9] it was 5.04 µM; in experiment [10], 5.81 µM.

As to `CC(=O)O[C@H]1CC[C@@]2(C)C(=C/C(=N/OCCN3CCCC3)[C@H]3[C@@H]4CC[C@H](OC(C)=O)[C@@]4(C)CC[C@@H]32)C1`, the GI50 in experiment [1] is 17.3 µM; in [2], 27.3 µM; in [3], above 100 µM; in experiment [4] it was 45.3 µM; in experiment [5], 69.1 µM; in experiment [6] it was 18 µM. For the same compound, the GI50 in [7] was 73.8 µM; in experiment [8] it was 52.1 µM; in experiment [9], above 100 µM; in [10], 10.4 µM. Also, the TGI in experiment [1] was 31.9 µM; in experiment [2] it was above 100 µM; in experiment [3] it was above 100 µM; in experiment [4], above 100 µM; in experiment [5] it was above 100 µM; in [6], 36.1 µM. For the same compound, the TGI in experiment [7] was above 100 µM; in [8], above 100 µM; in experiment [9] it was above 100 µM; in [10] it was 44.1 µM.

Regarding `CC(=O)Nc1n[n+]([O-])c2cc(C)ccc2[n+]1[O-]`, the TGI is 3.87 µM in experiment [1]; above 49.3 µM in [2]; 18.4 µM in experiment [3]; 6.04 µM in experiment [4]; 23.3 µM in [5]; 18.5 µM in [6]. For the same compound, the TGI in experiment [7] is 33.5 µM; in [8] it was 11.4 µM; in experiment [9], 7.77 µM; in [10], above 100 µM.

As to `O=C1N(Cc2ccccc2Cl)c2ccccc2C12NN=C(c1cccc(Cl)c1)S2` (stereo not given), the GI50 is 1.71 µM in experiment [1]; 2.21 µM in experiment [2]; 1.7 µM in [3]; 1.76 µM in experiment [4]; 1.75 µM in [5]; 1.54 µM in experiment [6]. The GI50 in experiment [7] is 1.88 µM; in [8] it was 1.62 µM; in experiment [9], 1.83 µM; in experiment [10], 2.14 µM. The TGI is 3.11 µM in experiment [1]; 5.39 µM in [2]; 3.26 µM in [3]; 3.52 µM in experiment [4]; 3.32 µM in [5]; 3.24 µM in experiment [6]. The TGI in experiment [7] is 3.76 µM; in [8], 3.1 µM; in [9], 3.43 µM; in experiment [10], 5.67 µM.

In the case of `CCOC(=O)Nc1cc2ccccc2c(N=Nc2ccccc2)c1O`, the TGI in [1], in [2], in [3], in experiment [4], in [5] and in experiment [6] was above 100 µM in each case. Besides, the TGI in experiment [7], in experiment [8], in experiment [9] and in experiment [10] was above 100 µM each time.

For the compound `COc1cc(Cl)cc(-c2nn(-c3cccc(NC(=O)Nc4ccc(Cl)c(Cl)c4)c3)cc2-c2ccncc2)c1`, the GI50 in experiment [1] was 1.62 µM; in experiment [2], 1.96 µM; in experiment [3], 3.85 µM; in experiment [4] it was 2.4 µM; in [5], 3.51 µM; in [6] it was 2.06 µM. In addition, the GI50 in experiment [7] was 4.36 µM; in experiment [8], 2.78 µM; in [9], 1.56 µM; in experiment [10], 1.54 µM. The TGI was 3.17 µM in [1]; above 100 µM in experiment [2]; above 100 µM in experiment [3]; 16.3 µM in experiment [4]; above 100 µM in experiment [5]; 7.85 µM in experiment [6]. The TGI in experiment [7] was above 100 µM; in experiment [8], 18.9 µM; in experiment [9], 29.4 µM; in experiment [10], 5.8 µM.

As for `Cc1ccc(C2NC(=O)c3ccccc3N2)c(C)c1` (stereo not given), the TGI in experiment [1] is above 39.5 µM; in [2], 8.37 µM; in experiment [3] it was above 100 µM; in experiment [4], above 100 µM; in [5] it was above 40.8 µM; in experiment [6], above 69.1 µM. For the same compound, the TGI in experiment [7] is above 86.5 µM; in [8], above 100 µM; in experiment [9], 4.68 µM; in experiment [10], above 71.8 µM.

These data come from PubChem BioAssay (NCI).
